In patent publication US20140088192A1, “SUBCUTANEOUSLY INFUSIBLE LEVODOPA PRODRUG COMPOSITIONS AND METHODS OF INFUSION” (SynAgile Corporation, priority 2010, published 2014):

Assays:
[1] = Hydrolysis of LDEE salts to LD in aqueous solution, monitored by HPLC; assay type: physicochemical
[2] = Precipitation of LD from / clarity of LDEE solutions on holding; conditions: for appearance of infused solution after storage: 2.3 M
Procedure: 150 mg of LDEE was dissolved in 3 mL of physiological saline (0.90% weight/volume of NaCl/water) at about 23° C., then at about 37° C. an additional amount of 22 mg of LDEE was added for a total LDEE concentration of about 57.3 mg/mL or about 0.25M.
At the ambient temperature of about 23° C., 226 mg of LDEE was dissolved in 1 mL of 1 M HCl. To the formed aqueous LDEE.HCl solution an additional amount of about 184 mg LDEE was added, followed by about 0.1 mL deionized water.
At the ambient temperature of about 23° C., about 113 mg of LDEE was dissolved in 1 mL of 1 M HCl. To the formed aqueous LDEE.HCl solution an additional amount of about 87 mg LDEE was added, followed by about 0.1 mL distilled water.
At the ambient temperature of about 23° C., about 226 mg of LDEE was dissolved in 1 mL of 1 M acetic acid. To the formed aqueous LDEE acetate salt solution an additional amount of about 168 mg LDEE was added. […] The pH of the resulting suspension was about 7.01 at about 26.4° C.
1.7 g of LDEE (7.5 millimoles) was dissolved in 1.405 mL of aqueous 5M HCl, then enough trisodium citrate was added to increase the pH to 5.5.
After flushing with nitrogen, the solution was kept for 7 days at 23±2° C. in a vial sealed with a grey elastomeric, substantially oxygen impermeable septum.

CCOC(=O)[C@@H](N)Cc1ccc(O)c(O)c1.Cl [LDEE.HCl, LDEE Hydrochloride]
LD/LDEE HPLC peak ratio ([1]; 0.48M LDEE•HCl, 40° C., 0 hrs, initial pH 4.2): 0.1292
LD/LDEE HPLC peak ratio ([1]; 0.48M LDEE•HCl, 40° C., 0 hrs, initial pH 4.4): 0.1309
LD/LDEE HPLC peak ratio ([1]; 0.48M LDEE•HCl, 40° C., 0 hrs, initial pH 4.6): 0.133
LD/LDEE HPLC peak ratio ([1]; 0.48M LDEE•HCl, 40° C., 0 hrs, initial pH 4.8): 0.1352
LD/LDEE HPLC peak ratio ([1]; 0.48M LDEE•HCl, 40° C., 0 hrs, initial pH 5): 0.1418
LD/LDEE HPLC peak ratio ([1]; 0.48M LDEE•HCl, 40° C., 0 hrs, initial pH 5.3): 0.1547
LD/LDEE HPLC peak ratio ([1]; 0.48M LDEE•HCl, 40° C., 0 hrs, initial pH 5.6): 0.1902
LD/LDEE HPLC peak ratio ([1]; 0.48M LDEE•HCl, 40° C., 2 hrs, initial pH 4.2): 0.2171
LD/LDEE HPLC peak ratio ([1]; 0.48M LDEE•HCl, 40° C., 2 hrs, initial pH 4.4): 0.2636
LD/LDEE HPLC peak ratio ([1]; 0.48M LDEE•HCl, 40° C., 2 hrs, initial pH 4.6): 0.2998
LD/LDEE HPLC peak ratio ([1]; 0.48M LDEE•HCl, 40° C., 2 hrs, initial pH 4.8): 0.3758
LD/LDEE HPLC peak ratio ([1]; 0.48M LDEE•HCl, 40° C., 2 hrs, initial pH 5): 0.5202
LD/LDEE HPLC peak ratio ([1]; 0.48M LDEE•HCl, 40° C., 2 hrs, initial pH 5.3): 0.8609
LD/LDEE HPLC peak ratio ([1]; 0.48M LDEE•HCl, 40° C., 2 hrs, initial pH 5.6): 1.4028
LD/LDEE HPLC peak ratio ([1]; 0.48M LDEE•HCl, 40° C., 6 hrs, initial pH 4.2): 0.3079
LD/LDEE HPLC peak ratio ([1]; 0.48M LDEE•HCl, 40° C., 6 hrs, initial pH 4.4): 0.3994
LD/LDEE HPLC peak ratio ([1]; 0.48M LDEE•HCl, 40° C., 6 hrs, initial pH 4.6): 0.4804
LD/LDEE HPLC peak ratio ([1]; 0.48M LDEE•HCl, 40° C., 6 hrs, initial pH 4.8): 0.6546
LD/LDEE HPLC peak ratio ([1]; 0.48M LDEE•HCl, 40° C., 6 hrs, initial pH 5): 0.9805
LD/LDEE HPLC peak ratio ([1]; 0.48M LDEE•HCl, 40° C., 6 hrs, initial pH 5.3): 1.7239
LD/LDEE HPLC peak ratio ([1]; 0.48M LDEE•HCl, 40° C., 6 hrs, initial pH 5.6): 2.8727
LD/LDEE HPLC peak ratio ([1]; 0.48M LDEE•HCl, 40° C., 24 hrs, initial pH 4.2): 0.8294
LD/LDEE HPLC peak ratio ([1]; 0.48M LDEE•HCl, 40° C., 24 hrs, initial pH 4.4): 1.1405
LD/LDEE HPLC peak ratio ([1]; 0.48M LDEE•HCl, 40° C., 24 hrs, initial pH 4.6): 1.415
LD/LDEE HPLC peak ratio ([1]; 0.48M LDEE•HCl, 40° C., 24 hrs, initial pH 4.8): 1.9804
LD/LDEE HPLC peak ratio ([1]; 0.48M LDEE•HCl, 40° C., 24 hrs, initial pH 5): 3.0727
LD/LDEE HPLC peak ratio ([1]; 0.48M LDEE•HCl, 40° C., 24 hrs, initial pH 5.3): 5.6312
LD/LDEE HPLC peak ratio ([1]; 0.48M LDEE•HCl, 40° C., 24 hrs, initial pH 5.6): 9.6563
LD/LDEE HPLC peak ratio ([1]; 0.95M LDEE•HCl, 40° C., 0 hrs, initial pH 4.2): 0.1238
LD/LDEE HPLC peak ratio ([1]; 0.95M LDEE•HCl, 40° C., 0 hrs, initial pH 4.4): 0.1252
LD/LDEE HPLC peak ratio ([1]; 0.95M LDEE•HCl, 40° C., 0 hrs, initial pH 4.6): 0.128
LD/LDEE HPLC peak ratio ([1]; 0.95M LDEE•HCl, 40° C., 0 hrs, initial pH 4.8): 0.1354
LD/LDEE HPLC peak ratio ([1]; 0.95M LDEE•HCl, 40° C., 0 hrs, initial pH 5): 0.1467
LD/LDEE HPLC peak ratio ([1]; 0.95M LDEE•HCl, 40° C., 0 hrs, initial pH 5.3): 0.1628
LD/LDEE HPLC peak ratio ([1]; 0.95M LDEE•HCl, 40° C., 0 hrs, initial pH 5.6): 0.1909
LD/LDEE HPLC peak ratio ([1]; 0.95M LDEE•HCl, 40° C., 2 hrs, initial pH 4.2): 0.2073
LD/LDEE HPLC peak ratio ([1]; 0.95M LDEE•HCl, 40° C., 2 hrs, initial pH 4.4): 0.2404
LD/LDEE HPLC peak ratio ([1]; 0.95M LDEE•HCl, 40° C., 2 hrs, initial pH 4.6): 0.2994
LD/LDEE HPLC peak ratio ([1]; 0.95M LDEE•HCl, 40° C., 2 hrs, initial pH 4.8): 0.3995
LD/LDEE HPLC peak ratio ([1]; 0.95M LDEE•HCl, 40° C., 2 hrs, initial pH 5): 0.5443
LD/LDEE HPLC peak ratio ([1]; 0.95M LDEE•HCl, 40° C., 2 hrs, initial pH 5.3): 0.8361
LD/LDEE HPLC peak ratio ([1]; 0.95M LDEE•HCl, 40° C., 2 hrs, initial pH 5.6): 1.3007
LD/LDEE HPLC peak ratio ([1]; 0.95M LDEE•HCl, 40° C., 6 hrs, initial pH 4.2): 0.2872
LD/LDEE HPLC peak ratio ([1]; 0.95M LDEE•HCl, 40° C., 6 hrs, initial pH 4.4): 0.3618
LD/LDEE HPLC peak ratio ([1]; 0.95M LDEE•HCl, 40° C., 6 hrs, initial pH 4.6): 0.4867
LD/LDEE HPLC peak ratio ([1]; 0.95M LDEE•HCl, 40° C., 6 hrs, initial pH 4.8): 0.7068
LD/LDEE HPLC peak ratio ([1]; 0.95M LDEE•HCl, 40° C., 6 hrs, initial pH 5): 1.0212
LD/LDEE HPLC peak ratio ([1]; 0.95M LDEE•HCl, 40° C., 6 hrs, initial pH 5.3): 1.6832
LD/LDEE HPLC peak ratio ([1]; 0.95M LDEE•HCl, 40° C., 6 hrs, initial pH 5.6): 2.7417
LD/LDEE HPLC peak ratio ([1]; 0.95M LDEE•HCl, 40° C., 24 hrs, initial pH 4.2): 0.7792
LD/LDEE HPLC peak ratio ([1]; 0.95M LDEE•HCl, 40° C., 24 hrs, initial pH 4.4): 1.0438
LD/LDEE HPLC peak ratio ([1]; 0.95M LDEE•HCl, 40° C., 24 hrs, initial pH 4.6): 1.4684
LD/LDEE HPLC peak ratio ([1]; 0.95M LDEE•HCl, 40° C., 24 hrs, initial pH 4.8): 2.2128
LD/LDEE HPLC peak ratio ([1]; 0.95M LDEE•HCl, 40° C., 24 hrs, initial pH 5): 3.2875
LD/LDEE HPLC peak ratio ([1]; 0.95M LDEE•HCl, 40° C., 24 hrs, initial pH 5.3): 5.6263
LD/LDEE HPLC peak ratio ([1]; 0.95M LDEE•HCl, 40° C., 24 hrs, initial pH 5.6): 9.5612
LD concentration versus estimated saturation concentration ([1]; 0.95 M and 0.48 M, 40° C., 24 hrs, up to about pH 5.5): remained below the estimated saturation concentration
% of LDEE.HCl hydrolyzed in the 21 week period, in addition to initial 0.16% ([1]; 2.4 M, pH 4.0, about 4° C.): 1.34%
% of LDEE.HCl hydrolyzed in the 21 week period, in addition to initial 0.15% ([1]; 2.5 M, pH 3.0, about 4° C.): 0.36%
% of the LDEE.HCl hydrolyzed to LD ([1]; 2.5 M, pH 4.5 citrate, 24 hours at 23±2° C.): 0.39%
appearance of infused solution after storage ([2]; citrate pH 4.5, 2.5 days at room temperature and 7 weeks in a refrigerator): colorless and clear
appearance of infused solution after storage ([2]; citrate pH 4.5, about 3 days at room temperature and about 3 months in a refrigerator): colorless and clear
precipitation of LD ([2]; about 0.7 M LDEE + LDEE.HCl, pH about 6.87, 37° C., 3 hours): no precipitation
